“Also recorded” adds a separate entry of the source.
Tests used:
[1] = system: hTERT-immortalized dermal melanocytes; assay: Melanocyte assay, daily inspection of cell morphology; format: cell-based, human; conditions: both concentrations of Table 11; five-day dosing period
Procedure: Once the melanocytes were 100% confluent in 6-well plates, the melanocyte growth media was removed and the melanocytes were treated with media containing the above compounds; duplicate wells for each compound/concentration listed above. The duplicate vehicle control wells were fed melanocyte growth media only or melanocyte growth media with DMSO (10 uL per 10 mL melanocyte growth media).
The cells were fed the appropriate media for the next 5 days. Each day, the cells were inspected for morphology.

keratinocytes = assay: Gene expression study (RNA sequencing) in keratinocytes; format: cell-based, human; conditions: 24 hours of compound exposure
Procedure: (§1) Four cell types associated with pigmentation pathways—melanocytes, keratinocytes, fibroblasts and endothelial (HUVEC) cells—were analyzed for gene expression.
(§2) To simulate the UV stimulatory pigmentation pathway process, melanocytes were pre-treated with PGE2, a normal direct consequence of UV light exposure usually emanating from exposed keratinocytes. After the 48 hour attachment culture, these melanocytes were induced with 10 uM PGE2 in melanocyte media for 24 hrs. The four primary human adult dermal cell lines were cultured and plated in well plates in triplicate and then treated with 11 different compound treatments (plus DMSO control). After 48 hours of attachment culture, the remaining fibroblasts, HUVECs and keratinocytes were treated with the test compounds listed in Table 8.
(§3) After 24 hours of compound exposure, RNA lysate preparation was carried out and samples were shipped to MedGenome for RNA extraction, library construction and sequencing to 25M paired end 100 bp reads per sample. Library prep and sequencing was completed at MedGenome.

melanocytes = assay: In vitro melanocyte comparative analysis via absorbance readings (melanin production); format: cell-based; conditions: for Absorbance 405 nm / Absorbance 490 nm / Absorbance 492 nm: 4 days, control = 0.0 row; for Regulation of melanogenesis (decreased absorption denoting decreased melanin formation): melanocytes, summary of Table 10
Procedure: Melanocytes were cultured in 6-well plates containing growth media. Once confluent, 2 concentrations of each of the 10 compounds were added to the cells in triplicate wells for 4 days. There were a total of eleven 6-well plates, one for each compound treatment and one for the vehicle control. Absorbance readings were taken on the lysates prepared for each well of the 6-well plates, normalizing for cells counts. The model was initially tested for accuracy and validated using hexapeptide-12 in view of strong gene expression results with melanocyte cell line in the first study—confirmation of decreased stimulation was obtained. Additional validation was carried out using MSH addition to media to confirm increased stimulation of melanin production. The following compounds used in this study are seen in Table 9.

[2] = system: endothelial (HUVEC) cells; assay: Gene expression study (RNA sequencing) in endothelial (HUVEC) cells; format: cell-based, human; conditions: 24 hours of compound exposure
Procedure: as §1, §2, §3

[3] = higher concentration (Lactoferrin 1000, HEX-11 200, Phosphatidylserine 500, Silymarin 20, Sesamol 100, Tranexamic Acid 1000, HEX-12 4.9, ug/mL or ug/uL; Phytoene/Phytofluene 5.00%)
[4] = lower concentration (Lactoferrin 500, HEX-11 100, Phosphatidylserine 250, Silymarin 10, Sesamol 50, Tranexamic Acid 500, HEX-12 2.9, ug/mL or ug/uL; Phytoene/Phytofluene 2.50%)

Molecule | melanocyte morphology / survival on daily inspection [1] | melanogenesis gene activity in keratinocytes (keratinocytes) | Absorbance 405 nm (melanocytes; [3]) | Absorbance 490 nm (melanocytes; [3]) | Absorbance 492 nm (melanocytes; [3]) | Absorbance 405 nm (melanocytes; [4]) | Absorbance 490 nm (melanocytes; [4]) | Absorbance 492 nm (melanocytes; [4]) | Regulation of melanogenesis (decreased absorption denoting decreased melanin formation) (melanocytes) | activity on EDN1 and other melanogenic genes in HUVECs [2]
C/C=C1/[C@H](O[C@@H]2O[C@H](CO)[C@@H](O)[C@H](O)[C@H]2O)OC=C(C(=O)OC)[C@H]1CC(=O)OCCc1ccc(O)c(O)c1 [Oleuropein] | nearly all melanocytes were dead 72 hours post-initial dosing |  |  |  |  |  |  |  |  | 
Hexapeptide-11 |  | active ingredient in melanogenesis activity; also recorded: significant effects on melanogenesis activity | 0.338 | 0.227 | 0.163 | 0.461 | 0.288 | 0.209 | Regulation of melanogenesis was observed | 
Phosphatidylserine |  |  | 0.61 | 0.38 | 0.288 | 0.686 | 0.438 | 0.338 | Regulation of melanogenesis was observed | potent activity; also recorded: significant effects on melanogenesis activity

Reference: patent publication US20240225985A1, “BRIGHTENING COMPOSITIONS AND METHODS OF USE” (Alastin Skincare, Inc., priority 2021, published 2024)
